Measured values taken from EP3150203B1, “COMPOUNDS WITH (1E,6E)-1,7-BIS-(3,4- DIMETHOXYPHENYL)-4,4-DISSTITUTED-HEPA-1,6-DIENE-3,5-DI-ONE STRUCTURAL SCAFFOLD,THEIR BIOLOGICAL ACTIVITY, AND USES THEREOF” (Allianz Pharmascience Ltd, priority 2012, dated 2013).
pIC50: −log10 of the molar value. Read-outs that look alike come from different tables or passages of the source.

Assays:
Androgen Receptor (AR) = target: T1, Androgen Receptor (AR) (Homo sapiens, UniProt P10275, H875Y, form not given); experiment: Western Blot analysis of AR protein expression in CWR22Rv1 cells; type: cell-based; details: for IC50: Western blotting
T1 sequence (P10275 1-920 H875Y): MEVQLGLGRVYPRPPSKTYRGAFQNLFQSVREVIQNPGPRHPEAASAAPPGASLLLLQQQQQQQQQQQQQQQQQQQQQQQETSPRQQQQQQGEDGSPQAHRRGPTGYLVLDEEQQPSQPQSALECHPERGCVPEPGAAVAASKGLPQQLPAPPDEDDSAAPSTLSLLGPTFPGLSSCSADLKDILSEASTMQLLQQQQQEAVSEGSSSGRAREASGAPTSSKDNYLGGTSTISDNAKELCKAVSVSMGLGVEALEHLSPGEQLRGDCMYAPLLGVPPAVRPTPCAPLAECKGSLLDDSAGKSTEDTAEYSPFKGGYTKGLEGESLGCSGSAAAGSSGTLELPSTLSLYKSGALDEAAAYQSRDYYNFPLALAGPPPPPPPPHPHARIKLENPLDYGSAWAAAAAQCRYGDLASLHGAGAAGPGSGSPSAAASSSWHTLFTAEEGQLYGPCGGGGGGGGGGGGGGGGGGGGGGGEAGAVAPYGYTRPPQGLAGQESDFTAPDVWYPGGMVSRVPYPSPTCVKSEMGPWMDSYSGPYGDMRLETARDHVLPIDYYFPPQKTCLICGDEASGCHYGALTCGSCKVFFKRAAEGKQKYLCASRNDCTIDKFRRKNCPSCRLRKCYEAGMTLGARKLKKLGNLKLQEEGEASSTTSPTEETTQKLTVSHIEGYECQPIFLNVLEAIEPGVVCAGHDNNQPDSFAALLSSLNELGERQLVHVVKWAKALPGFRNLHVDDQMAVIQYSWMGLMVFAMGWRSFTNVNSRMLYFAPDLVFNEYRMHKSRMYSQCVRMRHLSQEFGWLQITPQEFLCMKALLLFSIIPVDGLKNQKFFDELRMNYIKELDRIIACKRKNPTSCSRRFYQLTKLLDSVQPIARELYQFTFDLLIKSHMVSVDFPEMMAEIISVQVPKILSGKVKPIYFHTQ

[1] = tested on: CWR22Rv1 cells (human prostate cancer); experiment: MTT cell growth assay, CWR22Rv1 cells; type: cell-based; details: 5 days, read-out: Inhibition of Tumor cells growth IC50
Protocol: The MTT cell proliferation assay was applied in the present invention to detect the capability of compounds to suppress or inhibit prostate cancer cells growth. […] Briefly, 1 x 10^3 LNCaP or CWR22Rv1 cells suspended in complete medium were plated into each well of a 96-well Microtest III tissue culture plate (Falcon, NJ). Two days later, the medium was replaced with RPMI-1640 medium containing 10% charcoal/dextran-deprived FBS (hormone-deprived fetal bovine serum). Testing compounds were added to the medium at indicated concentrations with or without 1 nM DHT and cells were cultured for 5 days in an incubator (at 37 °C). MTT substrate solution (5 mg/ml in PBS) in 1/10 of volume was added to the cells in each well at 2 hours before harvesting. After 2 hour incubation, the plates were centrifuged (10 min at 1,000 rpm) and the supernatant from each well was carefully removed. A 100 µl of lysis buffer (50% dimethyl formamide, 5% sodium dodecyl sulphate, 0.35 M acetic acid, and 50 mM HCl) was added to each well to lyse the cells and dissolved tetrazolium in each well. The relative quantity of enzyme activity from each well was measured based on absorbance read at a wavelength of 450 nm using a Bio-RAD BenchMark microplate reader. Data derived from the MTT assay were also verified by the actual cell count and cell morphology on a separate plate set up in parallel.
For inhibition of tumor cell growth, in vitro, cells were growth in the presence of testing compounds for 5 days, and the cell growth was assayed by standard MTT assay. […] Table 2: Biological activity of Compounds and Derivatives having (1E, 6E)-1,7-bis-(3,4-dimethoxyphenyl)-4,4-disubstituted-hepta-1,6-diene-3,5-dione OR (1E, 10E)-1,11-bis(substituted phenyl)- 6,6-disubstituted undeca-1,3,8,10-tetraene-5,7-dione structural scaffold

[2] = Stability in acidic condition (0.1 N HCl, 37°C); type: physicochemical
Description: (§1) Also, at 24 hr where stability of JM49 was only 4%, while its derivative Compound 6 had improved to 79%. Similar improvements in stability (from 6- 24 hr) were also observed in the conditions of rat plasma (Table 4) and human plasma (Table 5). […] Table 3. Relative compound concentration changes (stability) in acidic condition

[3] = Stability in rat plasma (37°C); type: in vitro ADME
Description: as §1

[4] = Stability in human plasma (37°C); type: in vitro ADME; details: result in words (Table 5 not given)
Description: as §1

[5] = 48 h post-incubation, read-out: Reduction of AR expression IC50 (µM) 48 h
[6] = 24 h post-incubation, read-out: Reduction of AR expression IC50 (µM) 24 h

Structure (SMILES): COc1ccc(/C=C/C(=O)C(C)(CC2CC2)C(=O)/C=C/c2ccc(OC)c(OC)c2)cc1OC [Compound 1]
- IC50 (Androgen Receptor (AR); [5]): 2.1 µM
- pIC50 [1]: 5.62

Structure (SMILES): COc1ccc(/C=C/C(=O)C(C)(CC2CCC2)C(=O)/C=C/c2ccc(OC)c(OC)c2)cc1OC [Compound 2]
- pIC50 ([1]; Homo sapiens, 120 h): < 5.12

Structure (SMILES): COc1ccc(/C=C/C(=O)C(C)(CC2CCCC2)C(=O)/C=C/c2ccc(OC)c(OC)c2)cc1OC [Compound 4]
- pIC50 ([1]; Homo sapiens, 120 h): 5.59

Structure (SMILES): COc1ccc(/C=C/C(=O)C(C)(CC2CCCCC2)C(=O)/C=C/c2ccc(OC)c(OC)c2)cc1OC [Compound 5]
- IC50 (Androgen Receptor (AR); [5]): 4 µM
- pIC50 [1]: 5.34

Structure (SMILES): CCN(CC)C(=O)CC(C)(C(=O)/C=C/c1ccc(OC)c(OC)c1)C(=O)/C=C/c1ccc(OC)c(OC)c1 [Compound 6]
- pIC50 ([1]; Homo sapiens, 120 h): 5.82
- Concentration change (%) (stability) in acidic condition ([2]; 0 h): 100%
- Concentration change (%) (stability) in acidic condition ([2]; 2 h): 100%
- Concentration change (%) (stability) in acidic condition ([2]; 4 h): 99%
- Concentration change (%) (stability) in acidic condition ([2]; 24 h): 79%
- Concentration change (%) (stability) in acidic condition ([2]; 48 h): 56%
- Concentration change (%) (stability) in rat plasma ([3]; 0 h): 100%
- Concentration change (%) (stability) in rat plasma ([3]; 1 h): 98%
- Concentration change (%) (stability) in rat plasma ([3]; 2 h): 96%
- Concentration change (%) (stability) in rat plasma ([3]; 6 h): 93%
- Concentration change (%) (stability) in rat plasma ([3]; 24 h): 77%
- Concentration change (%) (stability) in rat plasma ([3]; 48 h): 51%
- stability in human plasma [4]: unexpectedly and dramatically improved

Structure (SMILES): COc1ccc(/C=C/C(=O)C(C)(CC(=O)N(C)C)C(=O)/C=C/c2ccc(OC)c(OC)c2)cc1OC [Compound 7]
- pIC50 ([1]; Homo sapiens, 120 h): 5.70
- Concentration change (%) (stability) in acidic condition ([2]; 0 h): 100%
- Concentration change (%) (stability) in acidic condition ([2]; 1 h): 99%
- Concentration change (%) (stability) in acidic condition ([2]; 2 h): 99%
- Concentration change (%) (stability) in acidic condition ([2]; 4 h): 98%
- Concentration change (%) (stability) in acidic condition ([2]; 24 h): 81%
- Concentration change (%) (stability) in acidic condition ([2]; 48 h): 58%
- Concentration change (%) (stability) in rat plasma ([3]; 0 h): 100%
- Concentration change (%) (stability) in rat plasma ([3]; 1 h): 101%
- Concentration change (%) (stability) in rat plasma ([3]; 2 h): 100%
- Concentration change (%) (stability) in rat plasma ([3]; 6 h): 101%
- Concentration change (%) (stability) in rat plasma ([3]; 24 h): 99%
- Concentration change (%) (stability) in rat plasma ([3]; 48 h): 86%
- stability in human plasma [4]: unexpectedly and dramatically improved

Structure (SMILES): CCCCC(C)(C(=O)/C=C/c1ccc(OC)c(OC)c1)C(=O)/C=C/c1ccc(OC)c(OC)c1 [Compound 8]
- pIC50 ([1]; Homo sapiens, 120 h): 5.64

Structure (SMILES): COc1ccc(/C=C/C(=O)C(C)(CC(=O)N2CCOCC2)C(=O)/C=C/c2ccc(OC)c(OC)c2)cc1OC [Compound 11]
- IC50 (Androgen Receptor (AR); [6]): 2.2 µM

Structure (SMILES): COc1ccc(/C=C/C(=O)C(F)(CC2CC2)C(=O)/C=C/c2ccc(OC)c(OC)c2)cc1OC [Compound 13]
- pIC50 ([1]; Homo sapiens, 120 h): < 5.30

Structure (SMILES): COc1ccc(/C=C/C(=O)C(F)(CC2CCC2)C(=O)/C=C/c2ccc(OC)c(OC)c2)cc1OC [Compound 14]
- pIC50 ([1]; Homo sapiens, 120 h): 5.44

Structure (SMILES): COc1ccc(/C=C/C(=O)C(F)(CC2CCCC2)C(=O)/C=C/c2ccc(OC)c(OC)c2)cc1OC [Compound 15]
- pIC50 ([1]; Homo sapiens, 120 h): 5.49

Structure (SMILES): COc1ccc(/C=C/C(=O)C(F)(CC2CCCCC2)C(=O)/C=C/c2ccc(OC)c(OC)c2)cc1OC [Compound 16]
- pIC50 ([1]; Homo sapiens, 120 h): 5.40

Structure (SMILES): CCN(CC)C(=O)CC(F)(C(=O)/C=C/c1ccc(OC)c(OC)c1)C(=O)/C=C/c1ccc(OC)c(OC)c1 [Compound 17]
- pIC50 ([1]; Homo sapiens, 120 h): < 5.12

Structure (SMILES): COc1ccc(/C=C/C(=O)C(F)(CC(=O)N(C)C)C(=O)/C=C/c2ccc(OC)c(OC)c2)cc1OC [Compound 18]
- IC50 (Androgen Receptor (AR); [6]): > 5 µM
- pIC50 [1]: < 5.12

Structure (SMILES): CCCCC(F)(C(=O)C=Cc1ccc(OC)c(OC)c1)C(=O)C=Cc1ccc(OC)c(OC)c1 (stereo not shown) [Compound 19]
- pIC50 ([1]; Homo sapiens, 120 h): 5.33

Structure (SMILES): CCN(CC)C(=O)CC(Cl)(C(=O)/C=C/c1ccc(OC)c(OC)c1)C(=O)/C=C/c1ccc(OC)c(OC)c1 [Compound 20]
- pIC50 ([1]; Homo sapiens, 120 h): 5.40

Structure (SMILES): COc1ccc(/C=C/C(=O)C(Cl)(CC(=O)N(C)C)C(=O)/C=C/c2ccc(OC)c(OC)c2)cc1OC [Compound 21]
- pIC50 ([1]; Homo sapiens, 120 h): < 5.12

Structure (SMILES): CCOC(=O)CCC(C)(C(=O)/C=C/c1ccc(OC)c(OC)c1)C(=O)/C=C/c1ccc(OC)c(OC)c1 [Compound 22]
- IC50 (Androgen Receptor (AR); [6]): 1.8 µM

Structure (SMILES): CCOC(=O)CCC(F)(C(=O)/C=C/c1ccc(OC)c(OC)c1)C(=O)/C=C/c1ccc(OC)c(OC)c1 [Compound 23]
- IC50 (Androgen Receptor (AR); [6]): > 5 µM

Structure (SMILES): CCN(CC)C(=O)CC(C)(C(=O)C=CC=Cc1ccc(OC)c(OC)c1)C(=O)C=CC=Cc1ccc(OC)c(OC)c1 (stereo not shown) [Compound 32]
- IC50 (Androgen Receptor (AR); [6]): 2.8 µM

Structure (SMILES): CCN(CC)C(=O)CC(C(=O)/C=C/c1ccc(OC)c(OC)c1)C(=O)/C=C/c1ccc(OC)c(OC)c1 [JM49]
- reducing endogenous AR expression (Androgen Receptor (AR); various concentrations, Western Blot (FIG. 6)): capable of reducing endogenous AR expression
- Concentration change (%) (stability) in acidic condition ([2]; 0 h): 100%
- Concentration change (%) (stability) in acidic condition ([2]; 1 h): 73%
- Concentration change (%) (stability) in acidic condition ([2]; 2 h): 56%
- Concentration change (%) (stability) in acidic condition ([2]; 6 h): 38%
- Concentration change (%) (stability) in acidic condition ([2]; 24 h): 4%
- Concentration change (%) (stability) in rat plasma ([3]; 0 h): 100%
- Concentration change (%) (stability) in rat plasma ([3]; 1 h): 68%
- Concentration change (%) (stability) in rat plasma ([3]; 2 h): 54%
- Concentration change (%) (stability) in rat plasma ([3]; 6 h): 27%
- Concentration change (%) (stability) in rat plasma ([3]; 24 h): 2%
- Concentration change (%) (stability) in rat plasma ([3]; 48 h): 0%
- stability in human plasma [4]: chemically unstable

Structure (SMILES): COc1ccc(/C=C/C(=O)C(CC(=O)N(C)C)=C(O)/C=C/c2ccc(OC)c(OC)c2)cc1OC [JM77]
- Concentration change (%) (stability) in acidic condition ([2]; 0 h): 100%
- Concentration change (%) (stability) in acidic condition ([2]; 1 h): 14%
- Concentration change (%) (stability) in acidic condition ([2]; 2 h): 8%
- Concentration change (%) (stability) in acidic condition ([2]; 6 h): 0%
- Concentration change (%) (stability) in acidic condition ([2]; 24 h): 0%
- Concentration change (%) (stability) in rat plasma ([3]; 0 h): 100%
- Concentration change (%) (stability) in rat plasma ([3]; 1 h): 93%
- Concentration change (%) (stability) in rat plasma ([3]; 2 h): 88%
- Concentration change (%) (stability) in rat plasma ([3]; 6 h): 73%
- Concentration change (%) (stability) in rat plasma ([3]; 24 h): 27%
- Concentration change (%) (stability) in rat plasma ([3]; 48 h): 7%
- stability in human plasma [4]: chemically unstable
